Measured values reported in US10669290B2, “Beta-lactamase inhibitors” (priority 2012, dated 2020).
Where two headings read alike, the source gives them in different places.

How the values were obtained:
SHV-5 = target: T1, SHV-5 (Klebsiella pneumoniae, UniProt P0A3M1); test: β-Lactamase inhibition, SHV-5 (cefotaxime substrate); assay type: biochemical
T1 construct: made in house; host or cells: E. coli BL21 (DE3)
Description: (§1) For SHV-5, Kpc-2, p99AmpC and OXA-1 β-lactamases, E. coli BL21 (DE3) bacterial cells carrying expression plasmids (expressed as native untagged proteins) for the individual β-lactamases were grown in 1 L of Superbroth (Teknova Inc. Hollister, Calif.) supplemented with 100 μg/ml kanamycin selection and 1×5052 (0.5% glycerol, 0.05% glucose and 0.2% α-lactose) at 35° C. for 18-20 hours. Cells were harvested by centrifugation (4,000×g, 4° C., 20 min), resuspended in 50 ml of 10 mM HEPES pH 7.5 ( 1/20 of the initial volume). The cells were lysed by sonication (5 pulses of 45 seconds) at 45 W on ice. The lysates were clarified by centrifugation at 10,000×g for 40 minutes at 4° C. Samples were diluted 5-fold in 50 mM sodium acetate pH 5.0, stored overnight at 4° C., after which they were centrifuged at 10,000×g for 30 minutes to clarify, and filtered through 0.45 µm filters. The samples were loaded onto a 5 ml Capto S sepharose cation exchange column (GE Healthcare) pre-equilibrated with 50 mM sodium acetate pH 5.0. […] Active fractions were pooled concentrated, quantitated by BCA protein determination (Thermo Scientific, Rockford, Ill.), dialyzed into PBS and frozen at −80° C. in 20% glycerol until use.
(§2) An equal volume of diluted enzyme stock was added, and the plates were incubated at 37° C. for 15 min. […] Absorbance at 486 nm was immediately monitored for 10 min using a Biotek Powerwave XS2 microplate spectrophotometer using the GEN5 software package (Biotek Instruments, Winooski Vt.). In an analogous fashion, imipenem was used as substrate for Kpc-2 and Cefotaxime was used for SHV-5, while changes in absorbance upon hydrolysis of the β-lactam ring were monitored at 300 nm and 260 nm respectively in UV-transparent 96-well microtiter assay plates. Maximum rates of hydrolysis were compared to those in control wells (without inhibitors), and percentages of enzyme inhibition were calculated for each concentration of inhibitor. […]

KPC-2 = target: T2, KPC-2 (Klebsiella pneumoniae, UniProt Q9F663); test: β-Lactamase inhibition, KPC-2 (imipenem substrate); assay type: biochemical
T2 construct: made in house; host or cells: E. coli BL21 (DE3)
T2 sequence (Q9F663 25-293 limits assumed): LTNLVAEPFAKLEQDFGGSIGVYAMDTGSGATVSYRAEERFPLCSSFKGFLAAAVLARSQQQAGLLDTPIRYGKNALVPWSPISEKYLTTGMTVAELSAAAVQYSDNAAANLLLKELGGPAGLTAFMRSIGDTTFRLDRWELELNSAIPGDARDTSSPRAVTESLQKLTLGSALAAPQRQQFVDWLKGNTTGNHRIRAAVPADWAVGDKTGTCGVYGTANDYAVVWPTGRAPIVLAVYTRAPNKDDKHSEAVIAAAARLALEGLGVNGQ
Description: as §1, §2

VIM-2 = target: T3, VIM-2 (Escherichia coli, UniProt Q5U7L7); test: β-Lactamase inhibition, VIM-2 (nitrocefin substrate); assay type: biochemical
T3 construct: made in house; host or cells: E. coli BL21 (DE3)
Description: as §1, with “use. […]” for “use.”
as §2

p99 AmpC = target: T4, p99 AmpC (Enterobacter cloacae, UniProt P05364); test: β-Lactamase inhibition, p99 AmpC (nitrocefin substrate); assay type: biochemical
T4 construct: made in house; host or cells: E. coli BL21 (DE3)
T4 sequence (P05364 21-381): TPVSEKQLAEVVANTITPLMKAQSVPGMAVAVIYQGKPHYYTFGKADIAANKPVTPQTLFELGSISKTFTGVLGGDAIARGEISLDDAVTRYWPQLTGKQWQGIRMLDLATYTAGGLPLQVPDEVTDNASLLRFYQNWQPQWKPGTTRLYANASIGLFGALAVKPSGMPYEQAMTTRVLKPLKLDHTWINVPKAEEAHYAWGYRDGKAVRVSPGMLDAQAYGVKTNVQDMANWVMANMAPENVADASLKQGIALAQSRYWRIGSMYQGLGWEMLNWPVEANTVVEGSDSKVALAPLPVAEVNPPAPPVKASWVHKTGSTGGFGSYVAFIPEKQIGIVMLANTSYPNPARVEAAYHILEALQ
Description: For SHV-5, Kpc-2, p99AmpC and OXA-1 β-lactamases, E. coli BL21 (DE3) bacterial cells carrying expression plasmids (expressed as native untagged proteins) for the individual β-lactamases were grown in 1 L of Superbroth (Teknova Inc. Hollister, Calif.) supplemented with 100 μg/ml kanamycin selection and 1×5052 (0.5% glycerol, 0.05% glucose and 0.2% α-lactose) at 35° C. for 18-20 hours. Cells were harvested by centrifugation (4,000×g, 4° C., 20 min), resuspended in 50 ml of 10 mM HEPES pH 7.5 ( 1/20 of the initial volume). The cells were lysed by sonication (5 pulses of 45 seconds) at 45 W on ice. The lysates were clarified by centrifugation at 10,000×g for 40 minutes at 4° C. Samples were diluted 5-fold in 50 mM sodium acetate pH 5.0, stored overnight at 4° C., after which they were centrifuged at 10,000×g for 30 minutes to clarify, and filtered through 0.45 µm filters. The samples were loaded onto a 5 ml Capto S sepharose cation exchange column (GE Healthcare) pre-equilibrated with 50 mM sodium acetate pH 5.0. The column was washed with 5 column volumes of 50 mM sodium acetate pH 5.0 to wash out unbound protein and a linear gradient of NaCl (0 to 500 mM) was used to elute the protein (over 16 CV) from the column. Fractions were assayed for β-lactamase activity using Centa (Calbiochem, Gibbstown, N.J.) or Nitrocefin (EMD Millipore chemicals, Darmstadt, Germany) as a reporter β-lactamase substrate for activity in the isolated fractions. Active fractions were pooled, concentrated and further purified by gel filtration chromatography on a Superdex 75 prep grade gel filtration column (GE Healthcare, Piscataway, N.J.) pre-equilibrated in 50 mM Hepes pH 7.5, 150 mM NaCl. Active fractions were pooled concentrated, quantitated by BCA protein determination (Thermo Scientific, Rockford, Ill.), dialyzed into PBS and frozen at −80° C. in 20% glycerol until use.
An equal volume of diluted enzyme stock was added, and the plates were incubated at 37° C. for 15 min. Nitrocefin was used as substrate for p99 AmpC, VIM-2 and OXA-1 and dispensed into each well at a final concentration of 100 μM. Absorbance at 486 nm was immediately monitored for 10 min using a Biotek Powerwave XS2 microplate spectrophotometer using the GEN5 software package (Biotek Instruments, Winooski Vt.). In an analogous fashion, imipenem was used as substrate for Kpc-2 and Cefotaxime was used for SHV-5, while changes in absorbance upon hydrolysis of the β-lactam ring were monitored at 300 nm and 260 nm respectively in UV-transparent 96-well microtiter assay plates. Maximum rates of hydrolysis were compared to those in control wells (without inhibitors), and percentages of enzyme inhibition were calculated for each concentration of inhibitor. The concentration of inhibitor needed to reduce the initial rate of hydrolysis of substrate by 50% (IC50) was calculated as the residual activity of β-lactamase at 486 nm using GraFit version 7 kinetics software package (Erithacus Software, Surrey, UK).
Using the methodology described above, examples of the current invention were evaluated for their ability to inhibit β-lactamase enzymes from all four Ambler classifications (A through D). […] NT=Not tested.

OXA-1 = target: T5, OXA-1 (Escherichia coli, UniProt P13661); test: β-Lactamase inhibition, OXA-1 (nitrocefin substrate); assay type: biochemical
T5 construct: made in house; host or cells: E. coli BL21 (DE3)
T5 sequence (P13661 26-276): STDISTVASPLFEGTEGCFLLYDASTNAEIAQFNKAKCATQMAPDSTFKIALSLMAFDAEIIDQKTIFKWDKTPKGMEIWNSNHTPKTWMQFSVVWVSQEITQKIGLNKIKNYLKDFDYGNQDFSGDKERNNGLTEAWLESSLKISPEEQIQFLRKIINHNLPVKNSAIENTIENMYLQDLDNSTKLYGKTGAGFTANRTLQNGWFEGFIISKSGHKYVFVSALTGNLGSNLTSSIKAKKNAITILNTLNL
Description: as §1, §2

E. coli ESBL4 CTX-M-15 = test: Broth microdilution MIC, E. coli ESBL4; assay type: cell-based; settings: fixed ceftazidime 4 μg/mL, CAMHB, 16-20 hours 37° C.; for MIC: Escherichia coli, ESBL4CTXM15, read-out: MIC of exemplary compounds in presence of fixed β-lactams, Fixed CAZ, E. coli ESBL4 CTX-M-15
In short: (§3)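 In this CLSI broth microdilution format, plates hold the test compound titrated 2-fold (32 to 0.25 μg/mL final) in CAMHB plus a fixed 4 μg/ml β-lactam. Incubation runs 16-20 h at 37° C, and the MIC is scored by eye.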

E. cl 144200 p99 AmpC = test: Broth microdilution MIC, E. cloacae 144200; assay type: cell-based; settings: fixed ceftazidime 4 μg/mL, CAMHB, 16-20 hours 37° C.; for MIC: Enterobacter cloacae, read-out: MIC of exemplary compounds in presence of fixed β-lactams, Fixed CAZ, E. cl 144200 p99 AmpC
In short: as §3

K.P. 156319 KPC-3 = test: Broth microdilution MIC, K. pneumoniae 156319; assay type: cell-based; settings: fixed meropenem 4 μg/mL, CAMHB, 16-20 hours 37° C.; for MIC: Klebsiella pneumoniae, read-out: MIC of exemplary compounds in presence of fixed β-lactams, Fixed Mero, K.P. 156319 KPC-3
P. aerug. Ps296 VIM-2 = test: Broth microdilution MIC, P. aeruginosa Ps296; assay type: cell-based; settings: fixed meropenem 4 μg/mL, CAMHB, 16-20 hours 37° C.; for MIC: Pseudomonas aeruginosa, read-out: MIC of exemplary compounds in presence of fixed β-lactams, Fixed Mero, P. aerug. Ps296 VIM-2
In short: as §3

K.P. A-1797 KPC-2 VIM-4 = test: Broth microdilution MIC, K. pneumoniae A-1797; assay type: cell-based; settings: fixed meropenem 4 μg/mL, CAMHB, 16-20 hours 37° C.; for MIC: Klebsiella pneumoniae, read-out: MIC of exemplary compounds in presence of fixed β-lactams, Fixed Mero, K.P. A-1797 KPC-2 VIM-4
S. aureus MSSA-7 PC-1 = test: Broth microdilution MIC, S. aureus MSSA-7; assay type: cell-based; settings: Staphylococcus aureus, fixed piperacillin 4 μg/mL, CAMHB, 16-20 hours 37° C., read-out: MIC of exemplary compounds in presence of fixed β-lactams, Fixed Pip, S. aureus MSSA-7 PC-1
[1] = nitrocefin 100 μM, 486 nm, 15 min preincubation 37° C., PBS pH 7.4, read-out: IC50 AmpC (Class C)

T1 sequence (P0A3M1 22-286): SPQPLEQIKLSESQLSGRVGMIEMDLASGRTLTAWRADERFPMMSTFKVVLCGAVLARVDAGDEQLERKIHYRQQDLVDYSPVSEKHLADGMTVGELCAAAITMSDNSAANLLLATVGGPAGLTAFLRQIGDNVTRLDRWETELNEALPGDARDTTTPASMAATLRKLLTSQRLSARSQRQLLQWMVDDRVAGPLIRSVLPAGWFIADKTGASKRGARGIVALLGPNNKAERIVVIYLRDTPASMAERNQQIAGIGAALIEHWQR

SMILES | IC50 (SHV-5) [nM] | IC50 (KPC-2) [nM] | IC50 (VIM-2) [nM] | IC50 (p99 AmpC) [nM] | IC50 (OXA-1) [nM] | MIC of exemplary compounds in presence of fixed β-lactams, Fixed CAZ, E. coli ESBL4 CTX-M-15 (E. coli ESBL4 CTX-M-15) | MIC of exemplary compounds in presence of fixed β-lactams, Fixed CAZ, E. cl 144200 p99 AmpC (E. cl 144200 p99 AmpC) | MIC of exemplary compounds in presence of fixed β-lactams, Fixed Mero, K.P. 156319 KPC-3 (K.P. 156319 KPC-3) | MIC of exemplary compounds in presence of fixed β-lactams, Fixed Mero, P. aerug. Ps296 VIM-2 (P. aerug. Ps296 VIM-2) | MIC of exemplary compounds in presence of fixed β-lactams, Fixed Mero, K.P. A-1797 KPC-2 VIM-4 (K.P. A-1797 KPC-2 VIM-4) | IC50 (p99 AmpC; [1]) [nM] | MIC (E. coli ESBL4 CTX-M-15) [µg/mL] | MIC (E. cl 144200 p99 AmpC) [µg/mL] | MIC (K.P. 156319 KPC-3) [µg/mL] | MIC (P. aerug. Ps296 VIM-2) [µg/mL] | MIC (K.P. A-1797 KPC-2 VIM-4) [µg/mL] | MIC (S. aureus MSSA-7 PC-1) [µg/mL]
NC[C@@H]1CC[C@@H](CC(=O)N[C@H]2Cc3cccc(C(=O)O)c3OB2O)C[C@H]1CN (mixture of isomers) [Example 18, (3R)-3-[[2-[(1S,3S,4S)-3,4-bis(aminomethyl)cyclohexyl]acetyl]amino]-2-hydroxy-3,4-dihydro-1,2-benzoxaborinine-8-carboxylic acid and (3R)-3-[[2-[(1R,3R,4R)-3,4-bis(aminomethyl)cyclohexyl]acetyl]amino]-2-hydroxy-3,4-dihydro-1,2-benzoxaborinine-8-carboxylic acid] | < 100 | < 100 | < 100 | < 100 | < 100 | C (C represents the MIC in the presence of <4 μg/mL of a β-lactamase inhibitor of exemplary compounds) | C (C represents the MIC in the presence of <4 μg/mL of a β-lactamase inhibitor of exemplary compounds) | C (C represents the MIC in the presence of <4 μg/mL of a β-lactamase inhibitor of exemplary compounds) | C (C represents the MIC in the presence of <4 μg/mL of a β-lactamase inhibitor of exemplary compounds) | B (B represents the MIC in the presence of between 8 and 32 μg/mL of a β-lactamase inhibitor of exemplary compounds) |  |  |  |  |  |  | 
N[C@H]1CC(C(=O)N[C@H]2Cc3cccc(C(=O)O)c3OB2O)C[C@@H]1N (mixture of isomers) [Example 19, (3R)-3-[[(3S,4S)-3,4-diaminocyclopentanecarbonyl]amino]-2-hydroxy-3,4-dihydro-1,2-benzoxaborinine-8-carboxylic acid and (3R)-3-[[(3R,4R)-3,4-diaminocyclopentanecarbonyl]amino]-2-hydroxy-3,4-dihydro-1,2-benzoxaborinine-8-carboxylic acid] | 100 to 1000 | < 100 | < 100 | < 100 | < 100 | C (C represents the MIC in the presence of <4 μg/mL of a β-lactamase inhibitor of exemplary compounds) | C (C represents the MIC in the presence of <4 μg/mL of a β-lactamase inhibitor of exemplary compounds) | C (C represents the MIC in the presence of <4 μg/mL of a β-lactamase inhibitor of exemplary compounds) | C (C represents the MIC in the presence of <4 μg/mL of a β-lactamase inhibitor of exemplary compounds) | C (C represents the MIC in the presence of <4 μg/mL of a β-lactamase inhibitor of exemplary compounds) |  |  |  |  |  |  | 
N=C(N)N1CCN([C@H]2CC[C@H](CC(=O)N[C@H]3Cc4cccc(C(=O)O)c4OB3O)CC2)CC1 [Example 24, (R)-3-(2-(trans-4-(4-carbamimidoylpiperazin-1-yl)cyclohexyl)acetamido)-2-hydroxy-3,4-dihydro-2H-benzo[e][1,2]oxaborinine-8-carboxylic acid] |  |  |  |  |  |  |  |  |  |  | < 100 | < 4 | < 4 | < 4 | 8 to 32 | < 4 | < 4
NC1CN(C2CCC(CC(=O)N[C@H]3Cc4cccc(C(=O)O)c4OB3O)CC2)C1 (stereo partly drawn) [Example 35, (3R)-3-(2-(4-(3-aminoazetidin-1-yl)cyclohexyl)acetamido)-2-hydroxy-3,4-dihydro-2H-benzo[e][1,2]oxaborinine-8-carboxylic acid] |  |  |  |  |  |  |  |  |  |  | < 100 | < 4 | < 4 | < 4 | < 4 | 8 to 32 | < 4
O=C(CC1CCC(NC2CNC2)CC1)N[C@H]1Cc2cccc(C(=O)O)c2OB1O (stereo partly drawn) [Example 36, (3R)-3-(2-(4-(azetidin-3-ylamino)cyclohexyl)acetamido)-2-hydroxy-3,4-dihydro-2H-benzo[e][1,2]oxaborinine-8-carboxylic acid] |  |  |  |  |  |  |  |  |  |  | < 100 | < 4 | < 4 | < 4 | < 4 | 8 to 32 | < 4
N=C(N)NC1CN(C2CCC(CC(=O)N[C@H]3Cc4cccc(C(=O)O)c4OB3O)CC2)C1 (stereo partly drawn) [Example 41, (3R)-3-(2-(4-(3-guanidinoazetidin-1-yl)cyclohexyl)acetamido)-2-hydroxy-3,4-dihydro-2H-benzo[e][1,2]oxaborinine-8-carboxylic acid] |  |  |  |  |  |  |  |  |  |  | < 100 | < 4 | < 4 | < 4 | 8 to 32 | < 4 | < 4
O=C(CC1CCC(O)CC1)N[C@H]1Cc2cccc(C(=O)O)c2OB1O (stereo partly drawn) [Example 47, (3R)-2-hydroxy-3-(2-(4-hydroxycyclohexyl)acetamido)-3,4-dihydro-2H-benzo[e][1,2]oxaborinine-8-carboxylic acid] |  |  |  |  |  |  |  |  |  |  | < 100 | < 4 | < 4 | < 4 | 8 to 32 | > 32 | < 4
CN(C)CCN[C@H]1CC[C@H](CC(=O)N[C@H]2Cc3cccc(C(=O)O)c3OB2O)CC1 [Example 79, (R)-3-(2-(trans-4-(2-(dimethylamino)ethylamino)cyclohexyl)acetamido)-2-hydroxy-3,4-dihydro-2H-benzo[e][1,2]oxaborinine-8-carboxylic acid] |  |  |  |  |  |  |  |  |  |  |  | < 4 | < 4 | < 4 | < 4 | < 4 | < 4
